Where two headings read alike, the source gives them in different places.
Key:
Assay type in all cases: cell-based
[1] = system: human gastric carcinoma cells N87; assay: Cell proliferation experiment (Alarm blue), N87
Protocol: (§1) The cells were cultured in conventional ways, and the cells should be passed for at least 2 generations before plating. Cells at the logarithmic growth phase were collected, prepared into single cell suspensions and counted. The concentration of cells was adjusted to desired concentration, and cells were inoculated into a 96-well cell culture plate at 100 μl per well. 100 μL of complete medium of the test compound were added to each well, 2 replicate wells for each concentration were set up, and diluted with a 5-fold gradient, and continued to culture for 72 h. All cells were subjected to EC50 test for corresponding samples.
(§2) The fluorescence intensity of each well was detected using the Alarm blue method, and IC50 was calculated.
(§3) IC50 was calculated according to the following formula:
(§4) [formula] • wherein Min, Max and Slope represent the minimum, maximum and slope respectively.

[2] = system: Human Small Cell Lung Cancer NCI-H82; assay: Cell proliferation experiment (Alarm blue), H82
Protocol: as §1, §2, §3, §4

[3] = system: Human Colon Cancer cells Colo205; assay: Cell proliferation experiment (Alarm blue), Colo205; conditions: Colo205 cells, 72 h culture, read-out: Anti cell proliferative activity EC50, Colo205
Protocol: as §1, §2, §3, §4

[4] = system: Human Small Cell Lung Cancer H69; assay: Cell proliferation experiment (Alarm blue), H69; conditions: H69 cells, 72 h culture, read-out: Anti cell proliferative activity EC50, H69
Protocol: as §1, §2, §3, §4

[5] = system: Human Colon Cancer HT-29; assay: Cell proliferation experiment (Alarm blue), HT-29; conditions: HT-29 cells, 72 h culture, read-out: Anti cell proliferative activity EC50, HT-29
Protocol: as §1, §2, §3, §4

[6] = Homo sapiens, N87 cells, 72 h culture, read-out: Anti cell proliferative activity EC50, N87
[7] = Homo sapiens, NCI-H82, H82 cells, 72 h culture, read-out: Anti cell proliferative activity EC50, H82
[8] = Homo sapiens, 72 h, N87 cells, 72 h culture, read-out: Anti cell proliferative activity EC50, N87
[9] = Homo sapiens, NCI-H82, 72 h, H82 cells, 72 h culture, read-out: Anti cell proliferative activity EC50, H82
[10] = N87 cells, 72 h culture, read-out: Anti cell proliferative activity EC50, N87
[11] = H82 cells, 72 h culture, read-out: Anti cell proliferative activity EC50, H82

Row | Compound | EC50 ([4]; Homo sapiens, NCI-H69) [nM] | EC50 [1, 8] [nM] | EC50 [2, 9] [nM] | EC50 ([3]; Homo sapiens, COLO 205, 72 h) [nM] | EC50 ([5]; Homo sapiens) [nM] | EC50 [1, 10] [nM] | EC50 [2, 11] [nM] | EC50 [3] [nM] | EC50 [4] [nM] | other results
1 | CNC(=O)c1ccccc1Nc1nc(Nc2ccc(N3CCN(C(=O)NC4CCN(C(=O)CNCCC#Cc5ccc6c(c5)CN(C5CCC(=O)NC5=O)C6=O)CC4)CC3)cc2)ncc1Cl (stereo not shown) [UB-181235] | > 1000 | – | – | – | – | – | – | – | – | EC50 [1, 6]: 813 nM; EC50 [2, 7]: 253 nM; EC50 ([3]; Homo sapiens, COLO 205): 144 nM
2 | NC(=O)c1ccccc1Nc1nc(Nc2ccc(N3CCN(C(=O)NC4CCN(C(=O)CNCCC#Cc5ccc6c(c5)CN(C5CCC(=O)NC5=O)C6=O)CC4)CC3)cc2)ncc1Cl (stereo not shown) [UB-181236] | > 1000 | 92.5 | 603 | 146 | – | – | – | – | – | –
3 | CNC(=O)c1ccccc1Nc1nc(Nc2ccc(N3CCN(C(=O)N[C@H]4CC[C@@H](N(CCC#Cc5ccc6c(c5)CN(C5CCC(=O)NC5=O)C6=O)C(=O)OCc5ccc(NC(=O)[C@H](CC(N)=O)NC(=O)[C@H](C)NC(=O)[C@H](C)NC(=O)COCCOC)cc5)CC4)CC3)cc2)ncc1Cl (stereo partly shown) [UB-181237] | > 1000 | – | – | – | 902 | – | – | – | – | EC50 [1, 6]: 308 nM; EC50 [2, 7]: 141 nM; EC50 ([3]; Homo sapiens, COLO 205): 277 nM
4 | CC[C@H]1C(=O)N(C)c2cnc(Nc3ccc(-c4cn([C@H]5CC[C@@H](N(CCOCCC#Cc6cccc7c6CN(C6CCC(=O)NC6=O)C7=O)C(=O)OCc6ccc(NC(=O)[C@H](CCCNC(N)=O)NC(=O)[C@@H](NC(=O)CCOCCOCCOCCOCCOCCOCCOCCOCCNC(=O)CCN7C(=O)C=CC7=O)C(C)C)cc6)CC5)nn4)cc3OC)nc2N1C1CCCC1 (stereo partly shown) [UB-181238] | – | – | – | – | – | – | – | – | – | EC50 ([1]; 72 h): > 1000 nM; EC50 ([2]; 72 h): > 1000 nM
5 | NC(=O)c1ccccc1Nc1nc(Nc2ccc(N3CCN(C(=O)NC4CCN(C(=O)CNCCC#Cc5ccc6c(c5)CN(C5CCC(=O)NC5=O)C6=O)CC4)CC3)cc2)ncc1Cl (stereo not shown) [UB-181239] | – | – | – | – | – | 132 | 354 | 175 | > 1000 | –
6 | CNC(=O)c1ccccc1Nc1nc(Nc2ccc(N3CCN(C(=O)N[C@H]4CC[C@@H](N(CCC#Cc5ccc6c(c5)CN(C5CCC(=O)NC5=O)C6=O)C(=O)OCc5ccc(NC(=O)[C@H](CC(N)=O)NC(=O)[C@H](C)NC(=O)[C@H](C)NC(=O)COCCOCCOCCOC)cc5)CC4)CC3)cc2)ncc1Cl (stereo partly shown) [UB-181242] | > 1000 | – | – | – | > 1000 | – | – | – | – | EC50 [1, 6]: 226 nM; EC50 [2, 7]: 94.2 nM; EC50 ([3]; Homo sapiens, COLO 205): 75.2 nM
7 | CNC(=O)c1ccccc1Nc1nc(Nc2ccc(N3CCN(C(=O)N[C@H]4CC[C@@H](N(CCC#Cc5ccc6c(c5)CN(C5CCC(=O)NC5=O)C6=O)C(=O)OC(C)C(C)SSC[C@H](N)C(=O)N[C@H](Cc5ccccc5)C(=O)N[C@H]5CSSC[C@@H](C(=O)N[C@H](CO)[C@@H](C)O)NC(=O)[C@H]([C@@H](C)O)NC(=O)[C@H](CCCCN)NC(=O)[C@@H](Cc6c[nH]c7ccccc67)NC(=O)[C@H](Cc6ccccc6)NC5=O)CC4)CC3)cc2)ncc1Cl (stereo partly shown) [UB-181243] | – | – | – | – | – | 668 | 240 | 311 | > 1000 | EC50 [5]: > 1000 nM
8 | CNC(=O)c1ccccc1Nc1nc(Nc2ccc(N3CCN(C(=O)N[C@H]4CC[C@@H](N(CCC#Cc5ccc6c(c5)CN(C5CCC(=O)NC5=O)C6=O)C(=O)OCc5ccc(NC(=O)[C@H](CCCNC(N)=O)NC(=O)[C@@H](NC(=O)CCCCCN6C(=O)CC(SC[C@H](N)C(=O)N[C@H](Cc7ccccc7)C(=O)N[C@H]7CSSC[C@@H](C(=O)N[C@H](CO)[C@@H](C)O)NC(=O)[C@H]([C@@H](C)O)NC(=O)[C@H](CCCCN)NC(=O)[C@@H](Cc8c[nH]c9ccccc89)NC(=O)[C@H](Cc8ccccc8)NC7=O)C6=O)C(C)C)cc5)CC4)CC3)cc2)ncc1Cl (stereo partly shown) [UB-181246] | – | – | – | – | – | 515 | 298 | 236 | > 1000 | EC50 [5]: > 1000 nM
9 | CNC(=O)c1ccccc1Nc1nc(Nc2ccc(N3CCN(C(=O)NC4CCC(N(CCC#Cc5ccc6c(c5)CN(C5CCC(=O)NC5=O)C6=O)C(=O)OCc5ccc(NC(=O)[C@H](CC(N)=O)NC(=O)[C@H](C)NC(=O)[C@H](C)NC(=O)CCCCCN6C(=O)CC(SC[C@H](N)C(=O)N[C@H](Cc7ccccc7)C(=O)N[C@H]7CSSC[C@@H](C(=O)N[C@H](CO)[C@@H](C)O)NC(=O)[C@H]([C@@H](C)O)NC(=O)[C@H](CCCCN)NC(=O)[C@@H](Cc8c[nH]c9ccccc89)NC(=O)[C@H](Cc8ccccc8)NC7=O)C6=O)cc5)CC4)CC3)cc2)ncc1Cl (stereo partly shown) [UB-181247] | – | – | – | – | – | 168 | 91.4 | 169 | > 1000 | EC50 [5]: > 1000 nM
10 | CNC(=O)c1ccccc1Nc1nc(Nc2ccc(N3CCC(C(=O)N4CCC5(CC4)CC(NCCC#Cc4ccc6c(c4)CN(C4CCC(=O)NC4=O)C6=O)C5)CC3)cc2)ncc1Cl (stereo not shown) [UB-181249] | > 1000 | 66.1 | 386 | 52 | – | – | – | – | – | –
11 | NC(=O)c1ccccc1Nc1nc(Nc2ccc(N3CCN(C(=O)N[C@H]4C[C@@H](NCCC#Cc5ccc6c(c5)CN(C5CCC(=O)NC5=O)C6=O)C4)CC3)cc2)ncc1Cl (stereo partly shown) [UB-181259] | 19.1 | 111 | 20.9 | 33.9 | 194 | – | – | – | – | –
12 | CNC(=O)c1ccccc1Nc1nc(Nc2ccc(N3CCN(C(=O)NC4CCC(N(CCC#Cc5ccc6c(c5)CN(C5CCC(=O)NC5=O)C6=O)C(=O)OCc5ccc(NC(=O)[C@H](CC(N)=O)NC(=O)[C@H](C)NC(=O)[C@H](C)NC(=O)CCCCCN6C(=O)CC(SC[C@H](NC(=O)CC[C@H](NC(=O)c7ccc(NCc8cnc9nc(N)[nH]c(=O)c9n8)cc7)C(=O)O)C(=O)N[C@H](Cc7ccccc7)C(=O)N[C@H]7CSSC[C@@H](C(=O)N[C@H](CO)[C@@H](C)O)NC(=O)[C@H]([C@@H](C)O)NC(=O)[C@H](CCCCN)NC(=O)[C@@H](Cc8c[nH]c9ccccc89)NC(=O)[C@H](Cc8ccccc8)NC7=O)C6=O)cc5)CC4)CC3)cc2)ncc1Cl (stereo partly shown) [UB-181263] | – | – | – | – | – | > 1000 | 53 | 9.1 | 192 | EC50 [5]: > 1000 nM
13 | CNC(=O)c1ccccc1Nc1nc(Nc2ccc(N3CCN(C(=O)N[C@H]4CC[C@@H](N(CCC#Cc5ccc6c(c5)CN(C5CCC(=O)NC5=O)C6=O)C(=O)OC(C)C(C)SSC[C@H](NC(=O)CC[C@H](NC(=O)c5ccc(NCc6cnc7nc(N)[nH]c(=O)c7n6)cc5)C(=O)O)C(=O)N[C@H](Cc5ccccc5)C(=O)N[C@H]5CSSC[C@@H](C(=O)N[C@H](CO)[C@@H](C)O)NC(=O)[C@H]([C@@H](C)O)NC(=O)[C@H](CCCCN)NC(=O)[C@@H](Cc6c[nH]c7ccccc67)NC(=O)[C@H](Cc6ccccc6)NC5=O)CC4)CC3)cc2)ncc1Cl (stereo partly shown) [UB-181266] | – | – | – | – | – | > 1000 | 152 | 234 | > 1000 | EC50 [5]: > 1000 nM
14 | C[C@H](NC(=O)CCCCCN1C(=O)C=CC1=O)C(=O)N[C@@H](C)C(=O)N[C@@H](CC(N)=O)C(=O)Nc1ccc(COC(=O)N(CCC#Cc2ccc3c(c2)CN(C2CCC(=O)NC2=O)C3=O)C2CCC(NC(=O)N3CCN(c4ccc(Nc5ncc(Cl)c(Nc6ccccc6C(N)=O)n5)cc4)CC3)CC2)cc1 (stereo partly shown) [UB-181295] | 953 | – | – | – | 484 | – | – | – | – | EC50 [2, 7]: 106 nM; EC50 ([3]; Homo sapiens, COLO 205): 136 nM

Second part, led by results:

Row | EC50 ([4]; Homo sapiens, NCI-H69) [nM] | EC50 [1, 8] [nM] | EC50 [2, 9] [nM] | EC50 ([3]; Homo sapiens, COLO 205, 72 h) [nM] | Compound | EC50 ([5]; Homo sapiens) [nM] | EC50 [1, 10] [nM] | EC50 [2, 11] [nM] | EC50 [3] [nM] | EC50 [4] [nM] | other results
15 | > 1000 | 92 | 37 | 40.1 | CNC(=O)c1ccccc1Nc1nc(Nc2ccc(N3CCN(C(=O)NC4CCN(CCNCCC#Cc5ccc6c(c5)CN(C5CCC(=O)NC5=O)C6=O)CC4)CC3)cc2)ncc1Cl (stereo not shown) [UB-181240] | 181 | – | – | – | – | –
16 | > 1000 | 20.5 | 53.7 | 48.2 | CNC(=O)c1ccccc1Nc1nc(Nc2ccc(N3CCN(C(=O)N[C@H]4C[C@@H](NCCC#Cc5ccc6c(c5)CN(C5CCC(=O)NC5=O)C6=O)C4)CC3)cc2)ncc1Cl (stereo partly shown) [UB-181250] | – | – | – | – | – | –
17 | > 1000 | 71.9 | 32.4 | 133 | NC(=O)c1ccccc1Nc1nc(Nc2ccc(N3CCN(C(=O)N[C@H]4CC[C@@H](NC5CN(CCC#Cc6ccc7c(c6)CN(C6CCC(=O)NC6=O)C7=O)C5)CC4)CC3)cc2)ncc1Cl (stereo partly shown) [UB-181251] | – | – | – | – | – | –
18 | > 1000 | 71.8 | 42.3 | 59.4 | CNC(=O)c1ccccc1Nc1nc(Nc2ccc(N3CCN(C(=O)N[C@H]4C[C@@H](NCC#Cc5ccc6c(c5)CN(C5CCC(=O)NC5=O)C6=O)C4)CC3)cc2)ncc1Cl (stereo partly shown) [UB-181257] | – | – | – | – | – | –
19 | 31.3 | 24.6 | 23.8 | 37.7 | NC(=O)c1ccccc1Nc1nc(Nc2ccc(N3CCN(C(=O)N[C@H]4C[C@@H](NCC#Cc5ccc6c(c5)CN(C5CCC(=O)NC5=O)C6=O)C4)CC3)cc2)ncc1Cl (stereo partly shown) [UB-181258] | 401 | – | – | – | – | –
20 | 61.2 | 23.6 | 24.9 | 24.8 | NC(=O)c1ccccc1Nc1nc(Nc2ccc(N3CCN(C(=O)N[C@H]4C[C@H](NCCC#Cc5ccc6c(c5)CN(C5CCC(=O)NC5=O)C6=O)C4)CC3)cc2)ncc1Cl (stereo partly shown) [UB-181261] | – | – | – | – | – | –

Reference: patent US20250041306A1, “TARGETED PROTEASE DEGRADATION (TED) PLATFORM” (EUBULUS BIOTHERAPEUTICS INC., priority 2021, published 2025)
